The values that follow come from patent publication US20060226082A1, “Methods for substrate and modulator screening using enzyme-reactor chromatography/tandem mass spectrometry” (McMaster University, priority 2005, published 2006).

“Also recorded” adds a separate entry of the source.

The target of experiment [1] is T1, adenosine deaminase (ADA, Type V, EC 3.5.4.4) entrapped in monolithic silica column (Bos taurus, UniProt P56658).
T1 construct: Adenosine deaminase (ADA, Type V, from bovine intestine, EC 3.5.4.4); purchased Sigma-Aldrich (Oakville, Ontario, Canada) Type V (catalogue number not given); host or cells: bovine intestine (tissue-derived)
T1 sequence (P56658 1-363): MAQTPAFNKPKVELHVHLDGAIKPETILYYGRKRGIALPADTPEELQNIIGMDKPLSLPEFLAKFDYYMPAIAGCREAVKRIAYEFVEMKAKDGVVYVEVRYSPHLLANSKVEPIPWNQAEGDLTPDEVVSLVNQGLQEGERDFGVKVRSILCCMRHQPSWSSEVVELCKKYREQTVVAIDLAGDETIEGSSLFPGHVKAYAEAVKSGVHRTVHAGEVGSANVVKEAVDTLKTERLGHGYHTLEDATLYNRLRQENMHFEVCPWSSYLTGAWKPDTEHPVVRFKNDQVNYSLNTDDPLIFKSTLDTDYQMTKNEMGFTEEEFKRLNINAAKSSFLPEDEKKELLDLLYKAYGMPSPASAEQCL
The experiment is described as follows: ADA enzyme reactor/MS mixture screening (primary and secondary screen). It is filed as biochemical, bovine. Particulars: each compound individually, 500 nM and 10 μM, 200 μM adenosine. The procedure: Columns were fabricated in a fashion similar to that described previously.^25 ADA was exhaustively dialyzed against a solution containing 5 mM Bis-Tris.HCl, pH 6.5, with 10% (v/v) glycerol to remove all traces of phosphate buffer and adjust the pH. 40 mL of the resultant 40 mM ADA solution was then mixed with 20 mL of a solution containing 0.5 mM Bis-Tris.HCl, pH 6.5 with 50% (v/v) glycerol. DGS based sols were prepared by sonicating DGS with water (1 g+1 mL) at 0° C. for 15 min to hydrolyze the monomer, followed by filtration through a 0.2 mm filter. 100 mL of the resulting sol was rapidly mixed with the 60 mL ADA solution prepared above, followed by the rapid addition of 40 mL of 40% (w/v) poly(ethylene glycol) in water. The sol solution was then injected into an 80 cm length of 250 mm i.d., 360 mm o.d., polyimide coated fused silica tubing that was previously cleaned using 1 M NaOH. The liquid sol must be completely mixed, injected and stationary within the capillary by the time phase separation occurs, ˜2 minutes after mixing. After gelation (˜3 min), capillaries were looped such that both ends could be submerged in 50 mM Bis-Tris.HCl pH 6.5 and secured for storage. Columns were aged for a minimum of 5 days to achieve a relatively stable internal structure. After aging, 10 cm column segments were cut from poured columns, as required. […]

Experiment [2] concerns the target T1, adenosine deaminase (ADA, Type V, EC 3.5.4.4) entrapped in monolithic silica column. The experiment can be described thus: ADA enzyme reactor/MS quantitative determination of IC50, KI and Km. It is filed as biochemical, bovine. Particulars: for IC50: IC50 [EHNA]; for effect on ADA activity (substrate and product signals, P/S ratio): test compounds increased stepwise from 0 to 1000 nM, adenosine constant at 62.5 μM, 2 mM ammonium acetate. An excerpt: In an embodiment of the invention, if the P/S ratio is altered in favour of the substrate, then at least one of the one or more test compounds is an inhibitor of the protein. By altering the ratio of the flow between substrate and test compound channels, one can alter the compound concentrations and, thereby, obtain full inhibition curves. IC50 values are obtained by altering the flow in the substrate and substrate+inhibitor(s) channel in a stepwise fashion, thus allowing for variation of inhibitor concentration with constant substrate concentration. […] KI values are determined by extrapolation of IC50 values obtained at different substrate concentrations to the point of zero substrate concentration as per the equation: [formula] […] Note that for the enzyme reactor column, product concentration, rather than reaction rate, is monitored. Thus, the equation is valid only under conditions where the initial rate is proportional to product concentration. In the present system, it is assumed that this holds for conversion rates of 30% or less.
To assess the enzyme-reactor chromatography/tandem MS method for inhibitor screening, monolithic silica columns containing entrapped adenosine deaminase (ADA, EC 3.5.4.4) and Factor Xa were formed according to previously described methods.^25 ADA was used as the model enzyme owing to the relevance of this protein in immune disorders,^19 and because there are currently no high-throughput screening methods for this enzyme. An Eksigent nanoLC system was used to continuously infuse liquid through the column (10 μL/min total flowrate), with one channel containing adenosine (Pump A) and another containing adenosine plus 1 μM test compound(s) (Pump B), with all species present in 2 mM ammonium acetate buffer (FIG. 1, bottom).
Columns were fabricated in a fashion similar to that described previously.^25 ADA was exhaustively dialyzed against a solution containing 5 mM Bis-Tris.HCl, pH 6.5, with 10% (v/v) glycerol to remove all traces of phosphate buffer and adjust the pH. 40 mL of the resultant 40 mM ADA solution was then mixed with 20 mL of a solution containing 0.5 mM Bis-Tris.HCl, pH 6.5 with 50% (v/v) glycerol. DGS based sols were prepared by sonicating DGS with water (1 g+1 mL) at 0° C. for 15 min to hydrolyze the monomer, followed by filtration through a 0.2 mm filter. 100 mL of the resulting sol was rapidly mixed with the 60 mL ADA solution prepared above, followed by the rapid addition of 40 mL of 40% (w/v) poly(ethylene glycol) in water. The sol solution was then injected into an 80 cm length of 250 mm i.d., 360 mm o.d., polyimide coated fused silica tubing that was previously cleaned using 1 M NaOH. The liquid sol must be completely mixed, injected and stationary within the capillary by the time phase separation occurs, ˜2 minutes after mixing. After gelation (˜3 min), capillaries were looped such that both ends could be submerged in 50 mM Bis-Tris.HCl pH 6.5 and secured for storage. Columns were aged for a minimum of 5 days to achieve a relatively stable internal structure. After aging, 10 cm column segments were cut from poured columns, as required.
A 2 channel, Eksigent nanoLC pump was used for mobile phase delivery to a MDS Sciex Q-Trap Mass Spectrometer. Note that the Eksigent pump uses direct pneumatic pumping of mobile phase at μL/min rates, with no flow splitting. An Eksigent AS-1 48 vial autosampler was fitted with a 250 μL withdrawal syringe and a 150 μL loop of 250 μm i.d. fused silica tubing. Thus, only small volumes of inhibitor solutions (˜400 μL) are required for screening, although larger volumes can be loaded directly into the Eksigent pump reservoir (1-5 mL depending on configuration) for determination of IC50 values. […] Mobile phases were run directly into the MS system, without the introduction of an organic “make-up flow”. Mass spectrometer control and data acquisition was done using Analyst v.1.4 software.

The target in experiment [3] is T2, adenosine deaminase (ADA) (Homo sapiens, UniProt P00813).
T2 sequence (P00813 1-363): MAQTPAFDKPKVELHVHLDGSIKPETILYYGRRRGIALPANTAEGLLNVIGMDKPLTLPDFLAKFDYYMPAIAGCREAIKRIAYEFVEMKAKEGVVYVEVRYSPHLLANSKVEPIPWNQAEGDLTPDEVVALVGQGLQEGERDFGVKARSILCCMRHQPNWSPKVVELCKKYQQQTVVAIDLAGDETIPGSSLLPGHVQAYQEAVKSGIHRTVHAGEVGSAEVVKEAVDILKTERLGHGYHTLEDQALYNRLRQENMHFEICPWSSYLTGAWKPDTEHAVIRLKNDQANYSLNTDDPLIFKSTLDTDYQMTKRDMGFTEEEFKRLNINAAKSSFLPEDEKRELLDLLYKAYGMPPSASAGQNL
Particulars: literature value; read-out: published KI value; cited from earlier work.

A word on the Ki: it is the dissociation constant of the complex between target and ligand, obtained from inhibition or displacement. The IC50 is the point on the concentration scale where inhibition reaches its midpoint. For `CCCCCCC(C(C)O)n1cnc2c(N)ncnc21` (stereo not drawn) [EHNA, erythro-9-(2-hydroxy-3-nonyl)adenine], the “ADA inhibition in secondary screen (individual compounds of active mixture)” value in experiment [1] was “active, inhibitory compound; also recorded: inhibitor of ADA”. The figures for the Ki in experiment [2] and in experiment [3] were 15.7 ± 3.5 nM and 6.5 nM, respectively. The 50% inhibitory concentration (IC50) in experiment [2] (EHNA alone (closed circles, FIG. 8A)) was 29.4 nM; in experiment [2] (EHNA in a mixture (open circles, FIG. 8A)), 29.7 nM. In addition, in experiment [2], the “effect on ADA activity (substrate and product signals, P/S ratio)” value is “concentration-dependent decrease in product and increase in substrate signals; also recorded: concentration-dependent decrease in ADA activity”.

Turning to `Nc1ncnc2c1ncn2[C@@H]1O[C@H](CO)[C@@H](O)[C@H]1O` [adenosine], the Vmax in experiment [2] (Michaelis-Menten analysis of inosine production rate (FIG. 6b)) worked out at 734 pmole/min/column.

With `Nc1nc2ncc(CNc3ccc(C(=O)N[C@@H](CCC(=O)O)C(=O)O)cc3)nc2c(=O)[nH]1` [folic acid], the “effect on ADA activity (substrate and product signals, P/S ratio)” value in experiment [2] is “no significant effect”.
